How the values were obtained:
Assay type in all cases: physicochemical
[1] = Hydration mapping starting with amorphous compound 1
Method: To establish the hydration map of compound 1, solutions with varying water activity (aw) were prepared and the aw was measured using a water activity meter. Table 13 below details the solvent systems investigated and their corresponding measured water activities.
To prepare amorphous material, 480 mg of Form A of compound 1 was weighed into a vial before being dissolved in 24 mL 1,4-dioxane. The resulting solution was then split evenly between 24 vials before being placed in the chamber of a freeze dryer at −50° C. to completely freeze the samples. The samples were then freeze dried overnight (approx. 18 h) and fluffy off-white solids were recovered. A small sub-sample of solid from one vial was analyzed by XRPD to confirm that amorphization had occurred. Using the other 23 vials of amorphous material, 1 mL of the solutions prepared above was added to each vial to prepare slurries. As before, where solutions were observed a brief manual agitation, an additional ˜10 to 20 mg of amorphous material was added to prepare a slurry. Additional solid was added to the 2-MeTHF, acetone/water (aw of 0.14 and 0.28), methanol/water (aw of 0.11) and acetonitrile/water (aw of 0.11) samples. All slurries were then agitated for 72 h at 25° C. After 72 h, aliquots of solid were isolated via centrifugal filtration and analyzed by XRPD.

[2] = Ethanol/hydrocarbon mixtures slurry study
Method: Using the methods described above for the Form A input and amorphous input experiments, 5×20 mg of Form A slurries and 5×20 mg of amorphous input slurries were prepared by adding 1 mL of solvent (see Table 16 below) to each vial and the resulting slurries were agitated for 24 h at 25° C. After 24 h, aliquots of solid were isolated via centrifugal filtration and analysed by XRPD.

[3] = Form investigation in buffered media; conditions: for XRPD Pattern / pH (24 h): 24 h at 25° C.
Method: To investigate the polymorphic landscape of compound 1 in buffered systems, 5×20 mg of Form A slurries and 5×20 mg of amorphous slurries (amorphous material prepared using the method described in the above hydration mapping experiments) were prepared by adding 1 mL of buffer to each vial and the resulting slurries were agitated for 24 h at 25° C. The pH was measured post-buffer addition and after 24 h agitation. After 24 h, aliquots of solid were isolated via centrifugal filtration and analysed by XRPD.

Compound: Cc1ccc(-c2noc([C@H]3C[C@@H]3F)n2)cc1NC(=O)c1cnc2ccccn12 [Amorphous Compound 1, N-(5-(5-((1R,2S)-2-fluorocyclopropyl)-1,2,4-oxadiazol-3-yl)-2-methylphenyl)imidazo[1,2-a]pyridine-3-carboxamide]
- XRPD pattern observed, 72 h ([1]; 2-MeTHF, aw 0.0378, 25° C.): Forms A, H^A and D
- XRPD pattern observed, 72 h ([1]; Acetone/Water, aw 0.1363, 25° C.): Form H^A
- XRPD pattern observed, 72 h ([1]; Acetone/Water, aw 0.2621, 25° C.): Form H^A
- XRPD pattern observed, 72 h ([1]; Acetone/Water, aw 0.5455, 25° C.): Form H^A
- XRPD pattern observed, 72 h ([1]; Acetone/Water, aw 0.7082, 25° C.): Form H^A
- XRPD pattern observed, 72 h ([1]; Acetone/Water, aw 0.9439, 25° C.): Form H^A and possibly Form C
- XRPD pattern observed, 72 h ([1]; EtOH/Heptane, aw 0.0300, 25° C.): Form E
- XRPD pattern observed, 72 h ([1]; EtOH/Water, aw 0.1580, 25° C.): Form H^A
- XRPD pattern observed, 72 h ([1]; EtOH/Water, aw 0.3377, 25° C.): Form H^A
- XRPD pattern observed, 72 h ([1]; EtOH/Water, aw 0.4986, 25° C.): Form H^A
- XRPD pattern observed, 72 h ([1]; EtOH/Water, aw 0.7600, 25° C.): Form A and Form H^A and additional peaks
- XRPD pattern observed, 72 h ([1]; EtOH/Water, aw 0.9005, 25° C.): Form A and Form H^A and additional peaks
- XRPD pattern observed, 72 h ([1]; MeCN/Water, aw 0.1060, 25° C.): Form H^A
- XRPD pattern observed, 72 h ([1]; MeCN/Water, aw 0.3664, 25° C.): Form H^A
- XRPD pattern observed, 72 h ([1]; MeCN/Water, aw 0.5573, 25° C.): Form H^A
- XRPD pattern observed, 72 h ([1]; MeCN/Water, aw 0.7300, 25° C.): Form H^A
- XRPD pattern observed, 72 h ([1]; MeCN/Water, aw 0.8946, 25° C.): Form H^A
- XRPD pattern observed, 72 h ([1]; MeOH/Water, aw 0.0963, 25° C.): Form H^A
- XRPD pattern observed, 72 h ([1]; MeOH/Water, aw 0.3242, 25° C.): Form H
- XRPD pattern observed, 72 h ([1]; MeOH/Water, aw 0.5145, 25° C.): Form H^A
- XRPD pattern observed, 72 h ([1]; MeOH/Water, aw 0.6965, 25° C.): Form H^A
- XRPD pattern observed, 72 h ([1]; MeOH/Water, aw 0.9294, 25° C.): Form C
- XRPD pattern observed, 72 h ([1]; Water/2-MeTHF, aw 0.5286, 25° C.): Form H^A
- XRPD pattern observed ([2]; EtOH/Cyclohexane (50:50% v/v), aw 0.025, 24 h at 25° C.): Form E
- XRPD pattern observed ([2]; EtOH/Dodecane (50:50% v/v), aw 0.024, 24 h at 25° C.): Form H^A
- XRPD pattern observed ([2]; EtOH/Hexane (50:50% v/v), aw 0.018, 24 h at 25° C.): Form E
- XRPD pattern observed ([2]; EtOH/Methylcyclohexane (50:50% v/v), aw 0.019, 24 h at 25° C.): Form E
- XRPD pattern observed ([2]; EtOH/Octane (50:50% v/v), aw 0.019, 24 h at 25° C.): Form E
- XRPD Pattern ([3]; NaOH (0.2M)): Form C
- XRPD Pattern ([3]; pH 1.2 (HCl—KCl)): HCl Salt Form
- XRPD Pattern ([3]; pH 4.5 (acetate)): Form F
- XRPD Pattern ([3]; pH 6.8 (phosphate)): Form C
- XRPD Pattern ([3]; pH 8 (PBS)): Form H^B
- pH (Post-Buffer Addition) ([3]; slurry in NaOH (0.2M)): 11.97
- pH (24 h) ([3]; slurry in NaOH (0.2M)): 11.87
- pH (Post-Buffer Addition) ([3]; slurry in pH 1.2 (HCl—KCl)): 1.21
- pH (24 h) ([3]; slurry in pH 1.2 (HCl—KCl)): 1.21
- pH (Post-Buffer Addition) ([3]; slurry in pH 4.5 (acetate)): 4.53
- pH (24 h) ([3]; slurry in pH 4.5 (acetate)): 4.55
- pH (Post-Buffer Addition) ([3]; slurry in pH 6.8 (phosphate)): 6.85
- pH (24 h) ([3]; slurry in pH 6.8 (phosphate)): 6.87
- pH (Post-Buffer Addition) ([3]; slurry in pH 8 (PBS)): 8.01
- pH (24 h) ([3]; slurry in pH 8 (PBS)): 8.11

Source: patent US11767319B2, “Crystalline forms of a selective c-kit kinase inhibitor” (Third Harmonic Bio, Inc., priority 2020, dated 2023)
